Converted amounts (≈) assume the structure as drawn. Read-outs that look alike come from different tables or passages of the source.
Legend:
P. aeruginosa PAO1 [1] = test: MIC, CLSI broth microdilution, P. aeruginosa PAO1; type: cell-based, Pseudomonas aeruginosa; details: for MIC: Pseudomonas aeruginosa
Description: (§1) Antimicrobial Susceptibility Tests. Susceptibility testing was performed in biological triplicate, using the microdilution broth method as outlined by the Clinical and Laboratory Standards Institute. Bacteria were cultured with cation-adjusted Meuller-Hinton broth (Sigma-Aldrich; catalogue number: 90922) or Luria-Bertani (LB) broth (Lennox) in round-bottom 96-well plates (Corning; catalogue number: 3788).

P. aeruginosa PA14 = test: MIC, P. aeruginosa PA14; type: cell-based, Pseudomonas aeruginosa; details: for MIC: Pseudomonas aeruginosa
Description: as §1

P. aeruginosa PA1280 = test: MIC, P. aeruginosa PA1280; type: cell-based, Pseudomonas aeruginosa; details: for MIC: Pseudomonas aeruginosa
Description: as §1

P. aeruginosa PAO1 [2] = test: LC-MS/MS whole-cell accumulation assay, P. aeruginosa PAO1; type: cell-based, Pseudomonas aeruginosa
Description: (§2) Accumulation Assay. The accumulation assay was performed in triplicate in batches of ten samples, with each batch containing tetracycline or ciprofloxacin as a positive control. P. aeruginosa PAO1, PAO1 A6, PA14, PA14 A40, and PA1280, and E. coli MG1655 were used in these experiments. For each replicate, 2.5 mL (E. coli) or 5 mL (P. aeruginosa) of an overnight culture was diluted into 250 mL of fresh Luria-Bertani broth (Lennox) or Tryptic Soy Broth (TSB) and grown at 37° C. with shaking to an optical density (OD600) of 0.55-0.60. The bacteria were pelleted at 3220 r.c.f. for 10 min at 4° C., and the supernatant was discarded. The pellets were resuspended in 40 mL of phosphate buffered saline (PBS) and pelleted as before, and the supernatant was discarded. The pellets were resuspended in 8.8 mL of fresh PBS and aliquoted into ten, 1.5 mL Eppendorf tubes (875 μL each). The number of colony-forming units (CFUs) was determined by a calibration curve. The samples were equilibrated at 37° C. with shaking for 5 min; compound was added (final concentration=50 μM), and then the samples were incubated at 37° C. with shaking for either 10 min. These time points were short enough to minimize metabolic and growth changes (no changes in OD600 or CFU count observed). After incubation, 800 μL of the cultures was carefully layered on 700 μL of silicone oil (9:1 AR20/Sigma High Temperature, cooled to −78° C.). Bacteria were pelleted through the oil by centrifuging at 13 000 r.c.f. for 2 min at room temperature (with the supernatant remaining above the oil); the supernatant and oil were then removed by pipetting. To lyse the samples, each pellet was dissolved in […] of water, and then, they were subjected to three (E. coli) or four (P. aeruginosa) freeze-thaw cycles of 3 min in liquid nitrogen followed by 3 min in a water bath at 65° C. P. aeruginosa samples were then treated with 50 µM DNase and RNase and incubated at 37° C. for 15 minutes. The lysates were pelleted at 13 000 r.c.f. for 2 min at room temperature, and the supernatant was collected ([…]). The debris was resuspended in 100 μL of methanol and pelleted as before. The supernatants were removed and combined with the previous supernatants collected. Finally, the remaining debris was removed by centrifuging at 20 000 r.c.f. for 10 min at room temperature. Supernatants were analyzed by LC-MS/MS.
(§3) Samples were analyzed with the 5500 QTRAP LC/MS/MS system (AB Sciex) with a 1200 series HPLC system (Agilent Technologies) including a degasser, an autosampler, and a binary pump. Liquid chromatography separation was performed on an Agilent SB-Aq column (4.6×50 mm, 5 μm) (Agilent Technologies) with mobile phase A (0.1% formic acid in water) and mobile phase B (0.1% formic acid in acetonitrile). The flow rate was 0.3 mL/min. The linear gradient was as follows: 0-3 min, 100% mobile phase A; 10-15 min, 2% mobile phase A; 15.5-21 min, 100% mobile phase A. The autosampler was set at 5° C. The injection volume was 15 μL. Mass spectra were acquired with both positive electrospray ionization at the ion spray voltage of 5500 V and negative electrospray ionization at the ion spray voltage of −4500 V. The source temperature was 450° C. The curtain gas, ion source gas 1, and ion source gas 2 were 33, 50, and 65, respectively. Multiple reaction monitoring was used to quantify the metabolites. Power analysis was not used to determine the number of replicates. Error bars represent the standard error of the mean of three biological replicates. The statistical significance of the accumulation was determined using a two sample Welch's t test (one-tailed test, assuming unequal variance) relative to the negative controls. All compounds evaluated in the biological assays were >95% pure.
MBN assay. Assays measuring permeabilization by polymyxin B nonapeptide (PMBN) were performed as above, with the addition of 8 μg/mL PMBN immediately before the compound of interest was added.

E. coli MG1655 = test: MIC, E. coli MG1655; type: cell-based; details: Escherichia coli, MG1655; Table 9; read-out: MIC E. coli MG1655
Description: as §1

S. aureus ATCC 29213 = test: MIC, S. aureus ATCC 29213; type: cell-based; details: Staphylococcus aureus, ATCC29213; Table 9; read-out: MIC S. aureus ATCC 29213
Description: as §1

WT PA = details: retrospective literature analysis (Table 6); cited from earlier work
PA efflux KO = details: retrospective literature analysis (Table 6); cited from earlier work
WT EC = details: retrospective literature analysis (Table 6); cited from earlier work
tolC EC = details: retrospective literature analysis (Table 6); cited from earlier work
P. aeruginosa PAΔ6 [3] = test: MIC, efflux pump knockout strain PAΔ6; type: cell-based, Pseudomonas aeruginosa
Description: as §1

P. aeruginosa PAΔ6 [4] = test: LC-MS/MS whole-cell accumulation assay, PAΔ6; type: cell-based, Pseudomonas aeruginosa; details: FIG. 1c
Description: as §2, §3

P. aeruginosa PAO1 [5] = test: NPN outer membrane permeability assay; type: cell-based, Pseudomonas aeruginosa; details: treatment for ten minutes
Description: Further, the fluorescent probe N-phenylnapthylamine (NPN) was used to assess outer membrane permeability changes upon treatment with FA, gentamicin, and FA prodrug. NPN is membrane impermeable and is only weakly fluorescent in aqueous solutions. Upon entry to the cell and interacting with phospholipids, significant fluorescence is observed. […] This residual membrane depolarizing antibacterial activity can be observed in the FA polyamine (FIG. 4a) and the diacylated compound (Table 9).

[6] = WT P. aeruginosa PAO1, MH broth (Table 1), read-out: PAO1 MIC
[7] = PA14, MH broth (Table 4), read-out: PA14 MIC
[8] = PA1280, MH broth (Table 4), read-out: PA1280 MIC

Compound: C[C@@H](O)[C@H]1C(=O)N2C(C(=O)O)=C(S[C@@H]3CN[C@H](C(=O)N(C)C)C3)[C@H](C)[C@H]12 [Meropenem]
- PAO1 MIC (P. aeruginosa PAO1 [1]; MH broth (Table 4)): 0.25 µg/mL
- MIC (P. aeruginosa PAO1 [1]; [6]): 0.25 µg/mL (≈ 0.652 µM)
- MIC (P. aeruginosa PA14; [7]): 0.5 µg/mL (≈ 1.3 µM)
- MIC (P. aeruginosa PA1280; [8]): 0.5 µg/mL (≈ 1.3 µM)
- accumulation in PAO1 (in words) (P. aeruginosa PAO1 [2]; FIG. 1a / FIG. 5): minimal accumulation

Compound: CC(=O)O[C@H]1C[C@@]2(C)[C@@H](C[C@@H](OC(C)=O)[C@H]3[C@@]4(C)CC[C@@H](OC(C)=O)[C@@H](C)[C@@H]4CC[C@@]32C)/C1=C(\CCC=C(C)C)C(=O)O/N=C(\N)CNCCCNCCCNCCCN [FA prodrug-diacetate]
- MIC (P. aeruginosa PAO1 [1]; PAO1, Table 9, read-out: MIC P. aeruginosa PAO1): 32 µg/mL (≈ 38 µM)
- MIC (E. coli MG1655): 16 µg/mL (≈ 19 µM)
- MIC (S. aureus ATCC 29213): 16 µg/mL (≈ 19 µM)

Compound: Cc1c(N2CC[C@@H]([C@H](C)N)C2)c(F)cc2c(CN)cc(=O)n(C3CC3)c12 [Compound 10]
- WT PA MIC (WT PA): 2 µg/mL
- PA efflux KO MIC (PA efflux KO): 0.5 µg/mL
- WT EC MIC (WT EC): 1 µg/mL
- tolC EC MIC (tolC EC): 0.06 µg/mL

Compound: CO[C@@H]1[C@@H](OC(N)=O)[C@@H](O)[C@H](Oc2ccc3c(O)c(NC(=O)c4ccc(O)c(CC=C(C)C)c4)c(=O)oc3c2C)OC1(C)C [Novobiocin]
- PAO1 MIC (P. aeruginosa PAO1 [1]; MH broth (Table 4)): >512 µg/mL
- MIC (P. aeruginosa PAO1 [1]; [6]): > 512 µg/mL
- PAO1 + PMBN MIC (P. aeruginosa PAO1 [1]; co-treatment of 8 μg/mL of PMBN, MH broth): 1 µg/mL
- MIC (P. aeruginosa PA14; [7]): > 512 µg/mL
- MIC (P. aeruginosa PA1280; [8]): > 512 µg/mL
- change of accumulation upon membrane permeabilization (P. aeruginosa PAO1 [2]; treatment with PMBN, FIG. 1b): significant increase in accumulation

Compound: Cc1c(N2CC[C@@H]([C@H](C)N)C2)c(F)cc2c(CO)cc(=O)n(C3CC3)c12 [Compound 11]
- WT PA MIC (WT PA): 16 µg/mL
- PA efflux KO MIC (PA efflux KO): 4 µg/mL
- WT EC MIC (WT EC): 16 µg/mL
- tolC EC MIC (tolC EC): 0.25 µg/mL

Compound: CN[C@H](CC(C)C)C(=O)N[C@H]1C(=O)N[C@@H](CC(N)=O)C(=O)N[C@H]2C(=O)N[C@H]3C(=O)N[C@H](C(=O)N[C@H](C(=O)O)c4cc(O)cc(O)c4-c4cc3ccc4O)[C@H](O)c3ccc(c(Cl)c3)Oc3cc2cc(c3O[C@@H]2O[C@H](CO)[C@@H](O)[C@H](O)[C@H]2O[C@H]2C[C@](C)(N)[C@H](O)[C@H](C)O2)Oc2ccc(cc2Cl)[C@H]1O [Vancomycin]
- PAO1 MIC (P. aeruginosa PAO1 [1]; MH broth (Table 4)): >512 µg/mL
- MIC (P. aeruginosa PAO1 [1]; PAO1, read-out: PAO1 MIC): > 512 µg/mL
- MIC (P. aeruginosa PAO1 [1]; PAO1, read-out: WT MIC): > 512 µg/mL
- Fold change (P. aeruginosa PAΔ6 [3]; MIC ratio WT PAO1 / PAΔ6 (Table 2)): 1
- PAΔ6 MIC (P. aeruginosa PAΔ6 [3]; efflux pump KO strain, MH or LB broth (Table 2)): >512 µg/mL
- MIC (P. aeruginosa PA14; PA14, read-out: PA14 MIC): > 512 µg/mL
- MIC (P. aeruginosa PA1280; PA1280, read-out: PA1280 MIC): > 512 µg/mL
- change of accumulation in efflux pump knockout PAΔ6 versus WT PAO1 (P. aeruginosa PAΔ6 [4]): no change in accumulation

Compound: CN(C)c1cc(NC(=O)CNC(C)(C)C)c(O)c2c1C[C@H]1C[C@H]3[C@H](N(C)C)C(O)=C(C(N)=O)C(=O)[C@@]3(O)C(O)=C1C2=O [Tigecycline]
- PAO1 MIC (P. aeruginosa PAO1 [1]; MH broth (Table 4)): 1 µg/mL
- MIC (P. aeruginosa PAO1 [1]; [6]): 1 µg/mL (≈ 1.71 µM)
- MIC (P. aeruginosa PA14; [7]): 2 µg/mL (≈ 3.41 µM)
- MIC (P. aeruginosa PA1280; [8]): 16 µg/mL (≈ 27.3 µM)
- accumulation relative to tetracycline (P. aeruginosa PAO1 [2]; FIG. 1a): accumulates to a higher extent than tetracycline
- WT PA MIC (WT PA): 1 µg/mL
- PA efflux KO MIC (PA efflux KO): 0.125 µg/mL
- WT EC MIC (WT EC): 0.5 µg/mL
- tolC EC MIC (tolC EC): 0.125 µg/mL

Compound: CN(C)[C@@H]1C(=O)C(C(N)=O)=C(O)[C@@]2(O)C(=O)C3=C(O)c4c(O)cccc4[C@@](C)(O)[C@H]3C[C@@H]12 [Tetracycline]
- PAO1 MIC (P. aeruginosa PAO1 [1]; MH broth (Table 4)): 16 µg/mL
- PAO1 MIC (P. aeruginosa PAO1 [1]; WT P. aeruginosa PAO1, MH broth (Table 1)): 16 µg/mL
- WT MIC (P. aeruginosa PAO1 [1]; WT P. aeruginosa PAO1, MH or LB broth (Table 7)): 16 µg/mL
- PAΔ6 MIC (P. aeruginosa PAΔ6 [3]; MH or LB broth (Table 7)): 0.25 µg/mL
- Fold change (MIC) (P. aeruginosa PAΔ6 [3]; WT MIC / PAΔ6 MIC (Table 7)): 64
- PA14 MIC (P. aeruginosa PA14; MH broth (Table 4)): 8 µg/mL
- PA1280 MIC (P. aeruginosa PA1280; MH broth (Table 4)): 32 µg/mL
- WT Accum (P. aeruginosa PAO1 [2]; WT PAO1, ± s.e.m. (Table 7)): 452 ± 5 nmol/10^12 CFUs
- WT PA MIC (WT PA): 16 µg/mL
- PA efflux KO MIC (PA efflux KO): 0.25 µg/mL
- WT EC MIC (WT EC): 1 µg/mL
- tolC EC MIC (tolC EC): 0.25 µg/mL

Compound: Gentamicin
- Fold change (MIC) (P. aeruginosa PAO1 [1]; 5 mM MgCl2/CAMH versus CAMH (Table 10)): 32X
- MIC P. aeruginosa PAO1, CAMH (P. aeruginosa PAO1 [1]; CAMH (Table 10)): 0.25 µg/mL
- shift in MIC on co-treatment with 5 mM MgCl2 (P. aeruginosa PAO1 [1]; P. aeruginosa PAO1): 32 -fold
- MIC P. aeruginosa PAO1, 5 mM MgCl2/CAMH (P. aeruginosa PAO1 [1]; co-treatment 5 mM MgCl2 in CAMH (Table 10)): 8
- NPN fluorescence (outer membrane permeability) (P. aeruginosa PAO1 [5]): dose-dependent increase

Compound: CC(=O)O[C@H]1C[C@@]2(C)[C@@H](C[C@@H](OC(C)=O)[C@H]3[C@@]4(C)CC[C@@H](OC(C)=O)[C@@H](C)[C@@H]4CC[C@@]32C)/C1=C(\CCC=C(C)C)C(=O)O [FA diacetate]
- MIC (E. coli MG1655): > 512 µg/mL
- MIC (S. aureus ATCC 29213): 64 µg/mL

Compound: CC(=O)NC[C@H]1CN(c2ccc(N3CCOCC3)c(F)c2)C(=O)O1 [Linezolid]
- PAO1 MIC (P. aeruginosa PAO1 [1]; MH broth (Table 4)): >512 µg/mL
- MIC (P. aeruginosa PAO1 [1]; [6]): > 512 µg/mL
- MIC (P. aeruginosa PA14; [7]): > 512 µg/mL
- MIC (P. aeruginosa PA1280; [8]): > 512 µg/mL

From patent publication US20260240869A1, “ANTIPSEUDOMONAL FUSIDIC ACID COMPOUNDS” (priority 2022, published 2026)
